Data published in US8933202B2, “AXL antibodies” (U3 Pharma GmbH, priority 2007, dated 2015).

What was measured:
[1] = system: NCI/ADR-RES ovarian cancer cells; experiment: TUNEL staining, combination with doxorubicin; format: cell-based, human; conditions: 24 h
Text: As rat anti-Axl antibodies of the invention turned out to interfere with Gas6-mediated anti-apoptosis of serum-starved NIH3T3-Axl cl.7 fibroblasts, the question arose, whether antagonistic anti-Axl antibodies would synergize with chemotherapeutic agents in inducing apoptosis, thereby contributing to overcome drug resistance. In this example, NCI/ADR-RES (originally named MCF-7/AdrR) cells—a ovarian cancer cell line (Liscovitch and Ravid, 2007, Cancer Letters, 245, 350-352) displaying a high level of resistance to several agents including doxorubicin (Fairchild et al., 1987, Cancer Research, 47, 5141-5148; Xu et al., 2002, The Journal of Pharmacology and Experimental Therapeutics, 302, 963-971)—were incubated with the antagonistic anti-Axl antibody 11B7 and/or doxorubicin, and apoptosis rates were determined by TUNEL staining. In brief, 3×10^4 NCI/ADR-RES cells in normal growth medium were seeded per well of an 8-chamber culture slide (BD Falcon, cat#354118) which were pre-incubated with the same medium for 1 h at 37° C. The next morning, normal growth medium was removed and cells were washed with and cultured in serum-reduced (0.5% FCS) medium. In the evening, isotypic control antibody 1D5 or the antagonistic anti-Axl antibody 11B7 were added at final concentrations of 10 μg/ml each. In the morning of day 3, doxorubicin at final concentrations of 100 μM, 150 μM, or 200 μM was added, and cells were incubated at 37° C. After 24 h, cells were rinsed once with PBS, fixed with 4% formaldehyde in PBS (pH 7.5) for 20 min at room temperature, air-dried for 5 min, and stored at −20° C. Using the commercially available Fluorescein-FragEL™ kit (Oncogene, cat#QIA39, presently being distributed through Merck-Calbiochem), TUNEL staining was performed according to the supplier's manual instructions (chapter ‘Fluorescein-FragEL™ of cell preparations fixed on slides’, page 10). Applying fluorescence microscopy, cells were analyzed and photos were taken.

[2] = system: NCI-H292 lung cancer cells; experiment: Wound healing/scratch assay; format: cell-based, human; conditions: 10 μg/ml antibody, 24 h, compared to isotypic control antibody
Text: To examine the migration and proliferation rates of different cells and culture conditions, in vitro wound healing/scratch assays are being employed for many years. These assays generally involve growing a confluent cell monolayer first. A small area is then disrupted and a group of cells are being destroyed or displaced by scratching a line through the layer with, for example, a pipette tip. The open gap is then inspected microscopically over time as the cells move in and fill the damaged area (“healing”). In brief, 1.5×10^6 NCI-H292 lung cancer cells were seeded per well of a 12 well dish and cultured in normal growth medium (RPMI, 10% FCS). After 8 h, cells were rinsed with PBS and starved in low serum medium (RPMI, 0.5% FCS) over night for 24 h. Using a sterile 200 μl pipette tip, three separate uniform wounds per well were scratched through the confluent NCI-H292 cell monolayers. […] Cells were permitted to migrate into the area of clearing for 24 h, washed once with PBS and fixed with ice cold Methanol (100%) at −20° C. After cells were stained with crystal violet (0.5% in 20% Methanol), rinsed with water and dried over night, photos of the wounds were taken.

## COc1cccc2c1C(=O)c1c(O)c3c(c(O)c1C2=O)C[C@@](O)(C(=O)CO)C[C@@H]3O[C@H]1C[C@H](N)[C@H](O)[C@H](C)O1 [doxorubicin, reference compound]
[1]; 100 μM doxorubicin + 10 μg/ml control antibody
  apoptosis (TUNEL staining), doxorubicin with control antibody, 100 μM: No TUNEL staining, and hence no apoptosis
[1]; 150 μM doxorubicin + 10 μg/ml control antibody
  apoptosis (TUNEL staining), doxorubicin with control antibody, 150 μM: only very week apoptosis

B1: ch11B7-IgG2: chimeric anti-AXL antibody 11B7 with human IgG2 (antibody)
heavy: EVQLQESGPGLVKPSQSLSLTCSVTGYSITSNYWGWIRKFPGDKMEWMGYITYSGSTSYNPSLKSRISITRDTSKNQFFLQLNSVTSEDTATYYCAITTFYYWGQGVMVTVSSASTKGPSVFPLAPCSRSTSESTAALGCLVKDYFPEPVTVSWNSGALTSGVHTFPAVLQSSGLYSLSSVVTVPSSNFGTQTYTCNVDHKPSNTKVDKTVERKCCVECPPCPAPPVAGPSVFLFPPKPKDTLMISRTPEVTCVVVDVSHEDPEVQFNWYVDGVEVHNAKTKPREEQFNSTFRVVSVLTVVHQDWLNGKEYKCKVSNKGLPAPIEKTISKTKGQPREPQVYTLPPSREEMTKNQVSLTCLVKGFYPSDIAVEWESNGQPENNYKTTPPMLDSDGSFFLYSKLTVDKSRWQQGNVFSCSVMHEALHNHYTQKSLSLSPGK
light: DIQMTQAPSSLPASLGDRVTITCRASQDIGNYLRWFQQKPGKSPRLMISGATNLAAGVPSRFSGSRSGSDYSLTISSLESEDMADYYCLQSKESPWTFGGGTKLELKRTVAAPSVFIFPPSDEQLKSGTASVVCLLNNFYPREAKVQWKVDNALQSGNSQESVTEQDSKDSTYSLSSTLTLSKADYEKHKVYACEVTHQGLSSPVTKSFNRGEC
[2]
  re-population of the cleared area (wound closure): reduced the re-population of the cleared area

B2: Ch11D5-IgG2: chimeric anti-AXL antibody 11D5 with human IgG2 (antibody)
heavy: EVQLQESGPGLVKPSQSLSLTCSVTGYSITSNYWGWIRKFPGNKMEWIGHITNSGNTTYNPSLKSRISISRDTSRNQFFLQLNSVTTEDTATYYCAKGAFDYWGQGVMVTVSSASTKGPSVFPLAPCSRSTSESTAALGCLVKDYFPEPVTVSWNSGALTSGVHTFPAVLQSSGLYSLSSVVTVPSSNFGTQTYTCNVDHKPSNTKVDKTVERKCCVECPPCPAPPVAGPSVFLFPPKPKDTLMISRTPEVTCVVVDVSHEDPEVQFNWYVDGVEVHNAKTKPREEQFNSTFRVVSVLTVVHQDWLNGKEYKCKVSNKGLPAPIEKTISKTKGQPREPQVYTLPPSREEMTKNQVSLTCLVKGFYPSDIAVEWESNGQPENNYKTTPPMLDSDGSFFLYSKLTVDKSRWQQGNVFSCSVMHEALHNHYTQKSLSLSPGK
light: DIQMTQSPSSMSTSLGDRVTITCRASQDIGNYLSWFQQKVGKSPRRMIYGAIKLAVGVPSRFSGSRSGSDYSLTISSLESEDMAIYYCLQYIQFPLTFGSGTKLELKRTVAAPSVFIFPPSDEQLKSGTASVVCLLNNFYPREAKVQWKVDNALQSGNSQESVTEQDSKDSTYSLSSTLTLSKADYEKHKVYACEVTHQGLSSPVTKSFNRGEC
[2]
  re-population of the cleared area (wound closure): reduced the re-population of the cleared area
